Consider 11 compounds from patent publication US4643999A, “2-substituted imidazo[1,2-c]pyrimidines having anxiolytic properties” (priority 1983, dated 1987).

Test [1] has as its target benzodiazepine receptor. Briefly: affinity for the benzodiazepine receptor, [3H] flunitrazepam radio receptor binding (Squires and Braestrup, modified). The following applies: inhibition by 50% of specific binding of 0.6 nM [3H] flunitrazepam to rat forebrain membrane preparations. On the procedure: The affinity of the compounds for the benzodiazepine receptor was assessed using the radioligand [^3 H] flunitrazepam and modifications of the original radio receptor binding method of Squires and Braestrup [Nature, Vol. 266 (1977) p. 732]. The values given in Table II are nanomolar concentrations of test drug which inhibited the specific binding of 0.6 nM [^3 H] flunitrazepam to rat forebrain membrane preparations by 50% (IC50 nM).

Test [2] can be described thus: Geller conflict, screening for anxiolytic activity (conflict method of Geller et al, modified). Format: in vivo. The following applies: po; read-out: GELLER CONFLICT MED (minimum effective dose at which there was an observed increase in shocks above control). On the procedure:
Screening for anxiolytic activity was carried out by modifications of the conflict method of Geller et al [Psychopharmacologia, (1960), Vol. I, p. 482]. The values given in Table II are the minimum effective doses at which there was an observed increase in shocks above control (MED mg/kg po).

For orientation: IC50 means the concentration at which inhibition is half-maximal. Lower therefore signals greater potency in that assay. `COc1cc2nc(C(=O)c3ccccc3)cn2c(OC)n1` [Example 10, (5,7-dimethoxy-imidazo[1,2-c]pyrimidin-2-yl) phenylmethanone] displayed a concentration for half-maximal inhibition (IC50) in test [1] of 1000 nM. For the same compound, the minimal effective dose in test [2] turned out to be 10 mg/kg.

`CCCn1c(OC)cc2nc(C(=O)c3ccccc3)cn2c1=O` [Example 3, 2-benzoyl-7-methoxy-6-propyl-imidazo[1,2-c]pyrimidin-5-one] came in with an IC50 in test [1] of 1000 nM. Also, the minimal effective dose in test [2] came to 10 mg/kg.

In test [1], `CSc1cc2nc(C(=O)c3ccccc3)cn2c(SC)n1` [Example 13, {5,7-bis(methylthio)-imidazo[1,2-c]pyrimidin-2-yl}phenylmethanone] gave an IC50 of 18 nM. In addition, in test [2], the minimal effective dose turned out to be 50 mg/kg.

As to `CCc1nc(OC)cc2nc(C(=O)c3ccccc3)cn12` [Example 5, (5-ethyl-7-methoxy-imidazo[1,2-c]pyrimidin-2-yl)phenylmethanone], in test [1], the IC50 came to 215 nM. In addition, the minimal effective dose in test [2] was determined as 10 mg/kg.

In test [1], `CCn1c(OC)cc2nc(C(=O)c3ccccc3)cn2c1=O` [Example 2, 2-benzoyl-6-ethyl-7-methoxyimidazo[1,2-c]pyrimidin-5-one] displayed an IC50 of 2000 nM. Besides, the minimal effective dose in test [2] was found to be 2 mg/kg.

The compound `C=CCn1c(OC)cc2nc(C(=O)c3ccccc3)cn2c1=O` [Example 9, 6-allyl-2-benzoyl-7-methoxy-imidazo[1,2-c]pyrimidin-5-one] registered an IC50 in test [1] of 500 nM. Also, the minimal effective dose in test [2] came to 5 mg/kg.

Take `CCn1c(SC)cc2nc(C(=O)c3ccccc3)cn2c1=O` [Example 14, 2-benzoyl-6-ethyl-7-methylthio-imidazo[1,2-c]pyrimidin-5-one]: the IC50 in test [1] was found to be 140 nM. Besides, the minimal effective dose in test [2] was found to be 5 mg/kg.

For the compound `COc1cc2nc(C(=O)c3ccccc3)cn2c(SC)n1` [Example 12, {7-methoxy-5-methylthio-imidazo[1,2-c]pyrimidin-2-yl}phenylmethanone], in test [1], the IC50 was determined as 126 nM. Besides, in test [2], the minimal effective dose was determined as 5 mg/kg.

As to `CCOc1nc(OC)cc2nc(C(=O)c3ccccc3)cn12` [Example 11, (5-ethoxy-7-methoxy-imidazo[1,2-c]pyrimidin-2-yl) phenylmethanone], the IC50 in test [1] is 890 nM.

`C=CCn1c(SC)cc2nc(C(=O)c3ccccc3)cn2c1=O` [Example 15, 6-allyl-2-benzoyl-7-methylthio-imidazo[1,2-c]pyrimidin-5-one] gave an IC50 in test [1] of 120 nM. Besides, in test [2], the minimal effective dose is 50 mg/kg.

The compound `COc1cc2nc(C(=O)c3ccccc3)cn2c(C)n1` [Example 4, (7-methoxy-5-methyl-imidazo[1,2-c]pyrimidin-2-yl)-phenylmethanone] came in with an IC50 in test [1] of 520 nM. In test [2], the minimal effective dose was determined as 50 mg/kg.
